Assays:
ERα phosphorylation = assay: E2-induced ERα phosphorylation, Western blotting, MCF-7; assay type: cell-based, human; conditions: 3 hours to 24 hours after E2
KPL-3C tumor = assay: Inhibition of tumor proliferation in vivo, KPL-3C orthotopic transplant; parameters: species or system BALB/c nude mouse; conditions: for Ser39 phosphorylation of PHB2/REA in the tumor: 14 mg/kg; for antitumor effect (tumor volume): E2 6 μg/day, 2 weeks
Method: FIG. 11-1 is a diagram illustrating that the ERAP1-peptide inhibits tumor proliferation in a mouse orthotopically transplanted with human breast cancer. (A) and (B) show the influence of the ERAP1-peptide on the tumor volume. […] were subcutaneously transplanted into the breast fat body of as BALB/c nude mouse. The treatment test (5 individuals/group) was initiated (day 0) when the volume of the tumor in the absence E2 reached about 50-80 mm^3. The ERAP1-peptide (14, 35 and 70 mg/kg), the scramble peptide (14, 35 and 70 mg/kg) or tamoxifen (4 mg/kg) was administered every day by intraperitoneal injection to a cancerous mouse orthotopically transplanted with KPL-3C tumor. At the same time, E2 (6 μg/day) was administered subcutaneously every day.
FIG. 11-3 is a diagram illustrating that the ERAP1-peptide inhibits tumor proliferation in a mouse orthotopically transplanted with human breast cancer. […] The mouse was euthanatized on day 14, and the tumor was removed, and the expression level of the downstream genes in each tumor was obtained by quantitative RT-PCR.
FIG. 11-4 is a diagram illustrating that the ERAP1-peptide inhibits tumor proliferation in a mouse orthotopically transplanted with human breast cancer.
FIG. 27 is a diagram illustrating the inhibition effect of the ERAP1-peptide on tumor proliferation in a mouse orthotopically transplanted with human breast cancer. […] KPL-3 cells were subcutaneously transplanted into the breast fat body of a BALB/c nude mouse. The treatment test (5 individuals/group) was initiated (day 0) when the volume of the tumor reached about 50-80 mm^3 in the absence of E2. To a cancerous mouse orthotopically transplanted with KPL-3C tumor, the ERAP1-peptide (Peptide: 14 mg/kg) or the ERAP1-scramble peptide (scrPeptide: 14 mg/kg) was administered every day by intraperitoneal injection. At the same time, E2 (6 μg/day) was administered subcutaneously every day. On day 14, the mouse was euthanatized, and the tumor was removed, and phosphorylation of PHB2/REA (S39) in each tumor was evaluated with immunoblotting analysis. […] The tamoxifen-resistant MCF7-cells (Tam-R MCF-7) were subcutaneously transplanted into the breast fat body of a BALB/c nude mouse, and the treatment test (5 individuals/group) was initiated (day 0) when the volume of the tumor reached about 50-80 mm^3 in the presence of tamoxifen (37 ng/day, 1.85 μg/kg). To a cancerous mouse orthotopically transplanted with Tam-R MCF-7 tumor, the ERAP1-peptide (Peptide: 3.5, 7 and 14 mg/kg) or the ERAP1-scramble peptide (scrPeptide: 14 mg/kg) was administered every day by intraperitoneal injection. At the same time, E2 (6 μg/day) was administered subcutaneously every day: Tam-R MCF-7 heterotransplanted tumor at day 21 and the mean tumor volume±SE (n=5) are shown. *P<0.05, **P<0.01, ***P<0.001.
KPL-3C cell suspension (1×10^7 cells/mouse) was mixed with the same amount of Matrigel (BD). This mixture was injected into the breast fat body of 6 weeks old female BALB/c nude mouse (CLEA Japan, Tokyo, Japan). The mouse was kept in a sterile isolated facility with a cycle of 12 hour light period/12 hour dark period, and freely fed with rodent food and water. The tumor was grown over 1 week until the size thereof reached 50 to 80 mm^3 (calculated as ½×(width×length^2)). Then, the mice were randomly divided into nine treatment groups (5 individuals/group): no treatment group, 6 μg/day E2 treatment group, E2+0.28 mg/day ERAP1-peptide treatment group, E2+0.7 mg/day ERAP1-peptide treatment group, E2+1.4 mg/day ERAP1-peptide treatment group, E2+0.28 mg/day of the scramble peptide treatment group, E2+0.7 mg/day of the scramble peptide treatment group, E2+1.4 mg/day of the scramble peptide treatment group, and E2+83 μg/day tamoxifen treatment group. The mouse was treated every day with 6 μg/day E2 solution (100 μl 2.2×10^−4 M) on the neck skin. […]

[1] = 14, 35, 70 mg/kg intraperitoneal every day

Row | Compound | E2-dependent phosphorylation of six sites of ERα (ERα phosphorylation) | Ser39 phosphorylation of PHB2/REA in the tumor (KPL-3C tumor; tumor removed day 14) | change of the body weight (KPL-3C tumor; [1]) | antitumor effect (tumor volume) (KPL-3C tumor; [1]) | expressions of ERα target genes PS2, cyclin D1, C-Myc, SP-1 in the tumor (KPL-3C tumor; tumor removed day 14) | phosphorylations of Akt and MAPK in the tumor (KPL-3C tumor; tumor removed day 14)
1 | CSCC[C@H](NC(=O)[C@H](CCC(N)=O)NC(=O)[C@H](CCCNC(=N)N)NC(=O)[C@H](CCCNC(=N)N)NC(=O)[C@H](CCCNC(=N)N)NC(=O)[C@H](CCCNC(=N)N)NC(=O)[C@H](CCCNC(=N)N)NC(=O)[C@H](CCCNC(=N)N)NC(=O)[C@H](CCCNC(=N)N)NC(=O)[C@H](CCCNC(=N)N)NC(=O)[C@H](CCCNC(=N)N)NC(=O)[C@H](CCCNC(=N)N)NC(=O)[C@@H](N)CCCNC(=N)N)C(=O)N[C@@H](CC(C)C)C(=O)N[C@@H](CO)C(=O)N[C@@H](CC(=O)O)C(=O)N[C@@H](CC(C)C)C(=O)N[C@H](C(=O)N[C@@H](CC(C)C)C(=O)N[C@@H](CCC(N)=O)C(=O)N[C@@H](CC(C)C)C(=O)N[C@@H](CCCNC(=N)N)C(=O)N[C@@H](CCC(N)=O)C(=O)N[C@@H](CCCNC(=N)N)C(=O)O)[C@@H](C)O [ERAP1-peptide] | suppressed to the same degree as that of no administration of E2 | phosphorylation of Ser39 of PHB21/REA was confirmed | change of the body weight was not recognized | the antitumor effect was recognized | completely suppressed | suppression for the phosphorylations of the non-genomic activation signal routes, i.e., Akt and MAPK, was also confirmed
2 | DRQLQLSTLQRML (SEQ ID NO: 28) (ERAP1-scramble peptide) [reference compound] | the suppression effect was not recognized | the phosphorylation of PHB2/REA was not recognized | – | significant tumor suppression effect was not recognized in any of the doses | suppression for the expression was not recognized | –
